“Also recorded” adds a separate entry of the source. Like-named read-outs stand apart in the source and are kept apart here.

Holding throughout (type): biochemical
Series [1] has as its target T1, MpUGT88A1 (Malus domestica, UniProt B3TKC8).
T1 construct: The entire coding region of the MpUGT88A1 cDNA was cloned in frame into the expression vector pET30a(+); made in house; host or cells: E. coli BL21-Codon-Plus-RIL
T1 sequence (B3TKC8 1-483): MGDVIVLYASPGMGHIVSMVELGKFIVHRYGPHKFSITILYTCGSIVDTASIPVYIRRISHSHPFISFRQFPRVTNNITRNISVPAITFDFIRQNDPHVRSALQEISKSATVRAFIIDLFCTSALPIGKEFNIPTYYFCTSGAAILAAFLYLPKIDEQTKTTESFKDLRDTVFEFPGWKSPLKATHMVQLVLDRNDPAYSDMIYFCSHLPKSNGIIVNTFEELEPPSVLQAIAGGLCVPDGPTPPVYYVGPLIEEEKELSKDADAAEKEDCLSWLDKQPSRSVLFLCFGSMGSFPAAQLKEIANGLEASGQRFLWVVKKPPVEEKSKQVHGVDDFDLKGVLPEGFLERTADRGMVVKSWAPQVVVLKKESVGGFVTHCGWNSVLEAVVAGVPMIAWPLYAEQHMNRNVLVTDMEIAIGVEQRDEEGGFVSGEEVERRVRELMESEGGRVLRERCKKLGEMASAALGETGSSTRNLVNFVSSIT
The series is described as follows: UGT activity assay with [3H]-UDP-glucose, recombinant MpUGT88A1. To be noted: [3H]-UDP-glucose as sugar donor; 2 mM substrate; 30° C., 30 min. As for the experimental part:
UGT activity assays were performed in triplicate in 50 μl reactions using ˜1-2 μg of recombinant protein purified on His-Trap and G200 Superdex columns. […] Reactions were performed at 30° C. for 30 min and terminated by addition of 10 μL of 2 M HCl. The reaction mixtures were extracted twice with 100 μL of ethyl acetate and 20 μl of the organic phase were combined with 1 ml of non-aqueous scintillation fluid and analysed by liquid scintillation counting (Tri-Carb 2900TR, PerkinElmer, Boston, Mass., USA). Boiled enzyme and pET30a(+) vector controls were run in parallel with all enzyme reactions. […]
Fifteen substrates (caffeic acid, catechin, chlorogenic acid, 2-coumaric acid, 3-coumaric acid, 4-coumaric acid, cyanidin, 3-(3,4 dihydroxyphenyl) propionic acid, epicatechin, 3-hydroxybenzoic acid, naringenin, phloretin, protocatechuic acid, quercetin and rutin) that are natural constituents of apple fruit or commonly available phenolic compounds were screened for activity.

Series [2] deals with T1, MpUGT88A1. The following applies: 2 μM phloretin; for inhibition of enzyme activity by divalent cations: 25 mM. The procedure: (§1) UGT activity assays were performed in triplicate in 50 μl reactions using ˜1-2 μg of recombinant protein purified on His-Trap and G200 Superdex columns. […] Reactions were performed at 30° C. for 30 min and terminated by addition of 10 μL of 2 M HCl. The reaction mixtures were extracted twice with 100 μL of ethyl acetate and 20 μl of the organic phase were combined with 1 ml of non-aqueous scintillation fluid and analysed by liquid scintillation counting (Tri-Carb 2900TR, PerkinElmer, Boston, Mass., USA). Boiled enzyme and pET30a(+) vector controls were run in parallel with all enzyme reactions.
(§2) The effect on UGT activity of different pH (5-10), temperature (15-50° C.) and ionic strength of monovalent (Na^+, 0-100 mM; K^+, 0-10 mM) and divalent ions ([…] or Mn^2+, 0-25 mM) was determined as described above using 2 μM phloretin.

For series [3], the target named is T1, MpUGT88A1. The following applies: 10 μM phloretin, 250 μM UDP-sugar, 16 h.
Series [4] in a line: Effect of pH and temperature on UGT activity of MpUGT88A1 towards phloretin. To be noted: 2 μM phloretin. As for the experimental part:
as §1, §2

Series [5] is described as follows: Phloretin glycosyl transferase activity assay of recombinant Md—138221. The following applies: recombinant protein from E. coli. As for the experimental part: as §1

Regarding `O=C(O)/C=C/c1ccccc1O` [2-coumaric acid], the “utilised by MpUGT88A1 as an acceptor (substrate screen)” value (“utilised by MpUGT88A1 as an acceptor” for short) on MpUGT88A1 [1] was “only phloretin was utilised”.

Regarding `O=C(O)CCc1ccc(O)c(O)c1` [3-(3,4 dihydroxyphenyl) propionic acid], the “utilised by MpUGT88A1 as an acceptor” value on MpUGT88A1 [1] is on record as “only phloretin was utilised”.

In the case of `O=C(O)/C=C/c1cccc(O)c1` [3-coumaric acid], the “utilised by MpUGT88A1 as an acceptor” value at MpUGT88A1 [1] is recorded as “only phloretin was utilised”.

As for `O=C(O)c1cccc(O)c1` [3-hydroxybenzoic acid], the “utilised by MpUGT88A1 as an acceptor” value on MpUGT88A1 [1] is given as “only phloretin was utilised”.

With `O=C(O)/C=C/c1ccc(O)cc1` [4-coumaric acid], at MpUGT88A1 [1], the “utilised by MpUGT88A1 as an acceptor” value is “only phloretin was utilised”.

On to `[K+]` [K^+], for which the “inhibition of enzyme activity by monovalent cation” value against MpUGT88A1 [2] (10 mM) is on record as “not inhibited”.

Regarding `[Mg+2]` [Mg^2+], the “inhibition of enzyme activity by divalent cations” value on MpUGT88A1 [2] is on record as “not inhibited”.

Turning to `[Mn+2]` [Mn^2+], the “inhibition of enzyme activity by divalent cations” value against MpUGT88A1 [2] is given as “not inhibited”.

Regarding `[Na+]` [Na^+], the “inhibition of enzyme activity by monovalent cation” value on MpUGT88A1 [2] (100 mM) is on record as “not inhibited”.

Consider `O=c1ccn([C@@H]2O[C@H](COP(=O)(O)OP(=O)(O)O[C@H]3OC[C@@H](O)[C@H](O)[C@H]3O)[C@@H](O)[C@H]2O)c(=O)[nH]1` [UDP-xylose], for which the “glycosylated product formation with phloretin and activated sugar donor (HPLC/LC-MS)” value on MpUGT88A1 [3] is “a single glycosylated product was formed”.

Regarding `O=C(O)/C=C/c1ccc(O)c(O)c1` [caffeic acid], the “utilised by MpUGT88A1 as an acceptor” value on MpUGT88A1 [1] is on record as “only phloretin was utilised”.

Take `O=C(/C=C/c1ccc(O)c(O)c1)O[C@@H]1C[C@](O)(C(=O)O)C[C@@H](O)[C@H]1O` [chlorogenic acid]: the “utilised by MpUGT88A1 as an acceptor” value at MpUGT88A1 [1] is recorded as “only phloretin was utilised”.

On to `O=C1C[C@@H](c2ccc(O)cc2)Oc2cc(O)cc(O)c21` [naringenin], for which the “utilised by MpUGT88A1 as an acceptor” value on MpUGT88A1 [1] is “only phloretin was utilised; also recorded: not utilised as substrates”.

Consider `O=C(CCc1ccc(O)cc1)c1c(O)cc(O)cc1O` [phloretin], for which the “utilised by MpUGT88A1 as an acceptor” value on MpUGT88A1 [1] is given as “only phloretin was utilised”.

As for `O=C(O)c1ccc(O)c(O)c1` [protocatechuic acid], at MpUGT88A1 [1], the “utilised by MpUGT88A1 as an acceptor” value is recorded as “only phloretin was utilised”.

With `O=c1c(O)c(-c2ccc(O)c(O)c2)oc2cc(O)cc(O)c12` [quercetin], the “utilised by MpUGT88A1 as an acceptor” value on MpUGT88A1 [1] is reported as “only phloretin was utilised; also recorded: not utilised as substrates”.

catechin: the “utilised by MpUGT88A1 as an acceptor” value on MpUGT88A1 [1] is reported as “only phloretin was utilised”.

B1: MpUGT88A1: Malus domestica uridine diphosphate glycosyltransferase; recombinant His6-tagged phloretin glycosyltransferase produced in E. coli (protein, listed as Malus domestica)
chain: MGDVIVLYASPGMGHIVSMVELGKFIVHRYGPHKFSITILYTCGSIVDTASIPVYIRRISHSHPFISFRQFPRVTNNITRNISVPAITFDFIRQNDPHVRSALQEISKSATVRAFIIDLFCTSALPIGKEFNIPTYYFCTSGAAILAAFLYLPKIDEQTKTTESFKDLRDTVFEFPGWKSPLKATHMVQLVLDRNDPAYSDMIYFCSHLPKSNGIIVNTFEELEPPSVLQAIAGGLCVPDGPTPPVYYVGPLIEEEKELSKDADAAEKEDCLSWLDKQPSRSVLFLCFGSMGSFPAAQLKEIANGLEASGQRFLWVVKKPPVEEKSKQVHGVDDFDLKGVLPEGFLERTADRGMVVKSWAPQVVVLKKESVGGFVTHCGWNSVLEAVVAGVPMIAWPLYAEQHMNRNVLVTDMEIAIGVEQRDEEGGFVSGEEVERRVRELMESEGGRVLRERCKKLGEMASAALGETGSSTRNLVNFVSSIT
modifications: His6 tag
notes: Malus domestica uridine diphosphate glycosyltransferase; recombinant His6-tagged phloretin glycosyltransferase produced in E. coli
Take B1: the “pH range of significant activity” value in series [4] (pH range 5-10) is 7-8. Further, the “pH of maximum activity” value in series [4] (pH range 5-10, 50 mM Tris-HCl) is reported as 7.7. For the same molecule, in series [4] (relative to maximum), the “activity at pH 5 and 10” value was “less than 5%”; the “activity at pH 6 and 9” value was found to be 20%. In series [4] (standard conditions), the “temperature of maximum activity” value stood at 25 °C and the “temperature range of activity” value was 15-50 °C.

B2: Md—138221: variant phloretin glycosyltransferase polypeptide from Malus x domestica (protein, listed as Malus domestica)
chain: MGDVIVLYAAPGMGHVISMVELGKLILHRYGPHKFSITILYTCGSFFDTPSIPAYIRRISHSHPSISFRQFPRVTNKITQNISGTAIVVDFVRQNDPHVRRALQDISKSAVVRAFIIDLVCTSAMTISKEFDIPTYYFYTSGAAALGAFLYFPKIHEQTTQSFKDLTDTVIEFPGRKSPLKAIHMIEPLLDRDDPAYWDFLSFCSDLPKSKGIIVNTFEELEPPAVLHAIAEGLCVPDGPTSPVYYVGPLIDEEKVSGNDAAAAEEDCLSWLDKQPSRSVVFLCFGSRGSLPAIQLKEIAKALEASGQRFLWVVKKPPVDEKTKQVLGVDDFDLEGVLPEGFLERTKDRGMVVKSWAPQAEVLKKESVGGFVTHCGWNSVLEAVVAGVPMIAWPLYAEQHLNRNVMATDMEIAIAVEQRDEEDGFVSGEELERRVRELMESEEGRVLRERSKKIGEMAMAALGENGSSTRNLVNFVNSLT
Turning to B2, the “phloretin glycosyltransferase activity relative to that shown for MpUGT88A1” value in series [5] is on record as “approximately 3%”.

(Values after US8859848B2, “Phloretin glycosyltransferases, polynucleotides encoding these and methods of use” (The New Zealand Institute for Plant and Food Research …, priority 2007, dated 2014).)
